Experimental data from patent publication US10919896B2, “Preparation and uses of pyrimidinone derivatives” (Cancer Research Technology Limited, priority 2016, dated 2021).

Experiments:
Cdc7/Dbf4 = Cdc7/Dbf4 (Homo sapiens, UniProt O00311); assay: Cdc7 Biochemical Assay Method 3: Cdc7/Dbf4 Enzyme TR-FRET Assay measuring pS40MCM2; settings: 1 μM ATP, read-out: Biochemical Method 3 (pIC50) (converted)
How it was run: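 2.5 nM Cdc7/Dbf4 incubated with 100 nM biotinylated MCM2-derived peptide and 1 μM ATP, 120 minutes at 25° C. Phospho-S40 detected by TR-FRET using anti-pS40 Mcm2 antibody, terbium anti-rabbit secondary and streptavidin-Alexa Fluor488.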

Cdc7/ASK [1] = target: T1, Cdc7/ASK (Homo sapiens, UniProt O00311); assay: Cdc7 Biochemical Assay Method 1: 384 well ELISA, whole protein substrate MCM2, antibody against Phospho MCM2 (S53); set-up: purchased; settings: 2 μM ATP, read-out: Biochemical Method 1 (pIC50) (converted)
T1 sequence (O00311 whole entry): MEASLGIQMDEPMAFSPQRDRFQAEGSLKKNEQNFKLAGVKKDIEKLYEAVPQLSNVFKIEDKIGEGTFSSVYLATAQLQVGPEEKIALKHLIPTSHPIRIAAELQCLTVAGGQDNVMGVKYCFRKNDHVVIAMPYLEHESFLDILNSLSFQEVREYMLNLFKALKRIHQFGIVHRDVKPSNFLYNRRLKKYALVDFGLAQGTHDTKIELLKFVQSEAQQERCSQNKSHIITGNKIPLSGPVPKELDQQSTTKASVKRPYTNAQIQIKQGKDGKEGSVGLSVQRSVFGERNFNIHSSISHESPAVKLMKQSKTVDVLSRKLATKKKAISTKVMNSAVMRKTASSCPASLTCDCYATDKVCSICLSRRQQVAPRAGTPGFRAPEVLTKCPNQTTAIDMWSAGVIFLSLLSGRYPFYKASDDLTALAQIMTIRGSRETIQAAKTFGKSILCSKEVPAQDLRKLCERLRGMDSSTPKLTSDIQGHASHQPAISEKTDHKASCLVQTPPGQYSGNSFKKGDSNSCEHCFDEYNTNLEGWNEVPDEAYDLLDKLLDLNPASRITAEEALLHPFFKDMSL
T1 sequence (Q9UBU7 whole entry partner): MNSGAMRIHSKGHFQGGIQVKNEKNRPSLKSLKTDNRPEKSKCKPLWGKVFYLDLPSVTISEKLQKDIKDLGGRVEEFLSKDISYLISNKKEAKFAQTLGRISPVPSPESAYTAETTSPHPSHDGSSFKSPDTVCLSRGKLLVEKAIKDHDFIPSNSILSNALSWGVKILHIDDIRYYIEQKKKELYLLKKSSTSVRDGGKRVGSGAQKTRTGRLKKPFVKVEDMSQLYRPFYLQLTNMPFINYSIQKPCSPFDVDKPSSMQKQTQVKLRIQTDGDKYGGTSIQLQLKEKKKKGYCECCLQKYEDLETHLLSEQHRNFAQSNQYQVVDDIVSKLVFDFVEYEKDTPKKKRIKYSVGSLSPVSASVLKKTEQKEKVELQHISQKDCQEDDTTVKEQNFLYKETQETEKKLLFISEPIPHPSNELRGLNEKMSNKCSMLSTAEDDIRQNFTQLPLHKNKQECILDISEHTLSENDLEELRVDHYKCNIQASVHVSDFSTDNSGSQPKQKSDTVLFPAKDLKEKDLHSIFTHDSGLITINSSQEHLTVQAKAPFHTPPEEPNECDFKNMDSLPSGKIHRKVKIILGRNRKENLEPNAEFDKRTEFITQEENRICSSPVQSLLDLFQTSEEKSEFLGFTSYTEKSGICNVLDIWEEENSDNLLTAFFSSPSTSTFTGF
How it was run: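 MCM2 protein substrate was coated on nickel-chelate plates, then Cdc7/ASK was added with 2 μM ATP in 50 mM Tris-HCl pH 8.5, 10 mM MgCl2, 1 mM DTT, 4% DMSO, 90 min at room temperature. Phospho-MCM2 (S53) was detected by ELISA with an AP secondary and PNPP absorbance. IC50 was derived from % inhibition versus no-compound and no-enzyme controls.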

Cdc7/ASK [2] = target: T1, Cdc7/ASK; assay: Cdc7 Biochemical Assay Method 2: 384 well mobility shift assay (EZ Reader II), MCM2 peptide substrate; set-up: purchased; settings: 12.5 μM ATP, read-out: Biochemical Method 2 (pIC50) (converted)
Description: This protocol describes a method for assaying Cdc7/ASK for activity. The assay is a 384 well mobility shift assay (MSA) run on the EZ Reader II microfluidics plate reader (Caliper LifeSciences), utilising a peptide substrate based on the MCM2 sequence. The assay technology is based on the change in mobility between the peptide substrate and the phosphorylated product. A 10 nL volume of the reaction mixture is sipped onto the microfluidic chip where the substrate and product are separated by electrophoresis and detected via laser-induced fluorescence (488 nm LED). The reaction can be monitored in real-time for kinetic experiments or as an end-point for IC50 determinations. The % conversion of substrate is calculated from peak heights of product (P) and substrate (S) peptides (% conversion=P/(P+S)*100).
• 10× Assay Buffer: 200 mM HEPES pH 8, 100 mM MgCl2, 0.1% v/v Triton X-100 and 15 mM DTT. Prepare fresh buffer from 1 M HEPES pH 8, 1 M MgCl2, 1 M DTT and 10% Triton x-100 stocks for each experiment. • Cdc7/ASK is purchased from commercial suppliers and used in the assay at a final assay concentration of 0.847 ng/μL or 9.2 nM. • MCM2 peptide is purchased from commercial suppliers and used in the assay at a final assay concentration of 2.5 μM. • ATP used in the assay at a final assay concentration of 12.5 μM. Methods • 1. Prepare intermediate (daughter) compound plate by transferring 2 μL of compound from the mother plate to 18 μL of 33.3% DMSO in a clear polypropylene plate. • 2. Dry-spot 1 μL of compound from the intermediate compound plate to empty assay plate. • 3. Add 5 μL of 1.694 ng/μL CDC7/ASK working solution to ‘test’ and ‘control’ wells or […] of 2× Assay Buffer to ‘blank’ wells. • 4. Add 4 μL 2.5 μM peptide/12.5 μM ATP working solution to all wells. • 5. Incubate at 37° C. for 1 hour then remove from the incubator and leave for a further 1 hour at room temperature. • 6. Place plate into an EZReader II to read.
Percentage inhibition values were calculated from % of substrate conversion values, using the no compound (DMSO) and no enzyme control values as 0% and 100% inhibition, respectively. IC50 determination was performed with ExcelFit software (IDBS) using curve fit 205. Z′ factors were determined for each plate tested and were all above 0.5.

[3] = test system: Cdc7 (pS53MCM2 levels in HCT116 cells); assay: Cdc7 Cell Pharmacodynamics Assay Method 1: pS53MCM2 levels in HCT116 cells, 6 hours; format: cell-based; settings: Homo sapiens, HCT-116, 6 h, read-out: Biomarker Method 1 (pEC50) (converted)
Description: This protocol describes a method to investigate the inhibition of Cdc7 activity of compounds by measuring pS53MCM2 levels in cells after treatment.
• HCT116 cells (wild type P53 positive) • McCoys 5A media (PAA Laboratories Ltd, E15-022) • 10% FCS (Sera Laboratories International Ltd, EU000F Batch:108005) • 100× L-Glutamine (Invitrogen, 25030-024) • D-PBS without CaCl2 and MgCl2 (Invitrogen, ref 14190-094) • Trypsin/EDTA (Invitrogen 25300-054) • 2% BSA in PBS • Cell Extraction Buffer (Invitrogen FNN0011) • Protease inhibitor cocktail (Sigma P-2714) • PMSF 0.3M stock in DMSO (Sigma P7626) • Antibody-rabbit pMCM2 Ser53 (Bethyl #A300-756A) • Antibody-goat MCM2 (Bethyl #A300-122A) • Antibody-goat Anti Rabbit IgG HRP (Perbio Science UK Ltd 31462) • 1×PBS • FACE Wash buffer (0.02% Triton X100 in 1×PBS) • SuperSignal ELISA Pico Chemiluminescent Substrate (Perbio Science UK Ltd 37070) Method • 72 hours prior to the start of the experiment plate 1×10^6 HCT 116 cells in a 150 cm^2 flask in complete McCoys 5A media (+10% FCS+1× L-glutamine). • Plate 20,000 HCT116 cells per well in standard TC treated 96 well plate in 100 μL complete McCoys 5A media. • Allow cells to settle overnight in incubator set at 37° C. and 5% CO2. • Remove intermediate plate from fridge and place at 37° C. overnight to allow to equilibrate. • Cell treatment: cell assay plate 100 μL; daughter to cell transfer volume 3.33 μL; daughter volume 45 μL; mother plate to daughter volume 5 μL. • Once all cells are treated remove the cells to the incubator and incubate for 6 hours. • Dilute the capture antibody (total MCM2#A300-122A) 1 in 250 in the required volume of PBS (5 mL per assay plate) and add 50 μL to each well of a Hybond plate excluding wells 12E to 12H. In these wells add 50 μL PBS. Seal the plate and incubate at room temperature for a minimum of 2 hours. • Defrost aliquot of Invitrogen Cell Extraction Buffer (FNN0011) on ice and supplement with appropriate volume of both Sigma protease inhibitor cocktail (P-2714) and PMSF (final conc 1 mM from a 1 M stock in DMSO). • After the 6 hour cell treatment time tap out the media from the assay plates and place them in the −70° C. freezer for at least 5 minutes. • Remove plates from freezer and add 20 μL of ice cold complete lysis buffer on ice. Incubate cells for 30 minutes at 4° C. • Add 80 μL per well 2% BSA. • Transfer 80 μL from the lysis plate to the same wells in the capture/ELISA plate. Cover with plate seal and incubate plates overnight at 4° C. • Wash plates with PBS, remove any residual remaining liquid and add 50 μL per well of pMCM2 Ser53 antibody (#A300-756A) diluted 1 in 100 in 2% BSA. Cover plate and incubate at room temperature for 2 hours with gentle shaking. • Wash plates with PBS, remove any residual remaining liquid and Incubate with 50 μL goat anti rabbit antibody (1 in 800 dilution in 2% BSA) for 1 hour at room temperature. • Wash plates with PBS, remove any residual remaining liquid and add 50 μL mixed SuperSignal Pico substrate. • Incubate each plate for 5 minutes at room temperature shielding the plates from direct light (with a cover plate). Read plates with the luminescent detection. Method 2A and 2B

Sequence of Cdc7/Dbf4 (O00311 whole entry): as the sequence (O00311 whole entry) above
Sequence of Cdc7/Dbf4 (Q9UBU7 whole entry partner): as the sequence (Q9UBU7 whole entry partner) above

Row | SMILES | IC50 (Cdc7/Dbf4) [nM] | IC50 (Cdc7/ASK [1]) [nM] | IC50 (Cdc7/ASK [2]) [nM] | EC50 [3] [nM]
1 | CC(C)C[C@H]1CN2CCC[C@H]2CN1c1nc(-c2ccncc2)[nH]c(=O)c1Cl [Compound 184] | 102 | 437 | 170 | –
2 | CC(F)(F)[C@H]1CN(c2nc(-c3ccncc3)[nH]c(=O)c2Cl)CCN1 [Compound 307] | – | 3.63 | 2.29 | –
3 | CC(F)(F)[C@H]1CN(c2nc(-c3ccnc(F)c3)[nH]c(=O)c2Cl)CCN1 [Compound 315] | – | – | 1.51 | 63.1
4 | NC[C@@H]1CCN(c2nc(-c3ccnc(F)c3)[nH]c(=O)c2Cl)C1 [Compound 318] | – | – | 14.1 | –
5 | NC1CCN(c2nc(-c3ccnc(F)c3)[nH]c(=O)c2Cl)CC1 [Compound 321] | – | – | 2.29 | 457
6 | CC(C)(C)[C@H]1CN(c2nc(-c3ccnc(F)c3)[nH]c(=O)c2Cl)CCN1 [Compound 322] | – | – | 1.38 | 42.7
7 | C[C@H]1COCCN1c1nc(-c2ccncc2)[nH]c(=O)c1Cl [Compound 365] | – | – | 7.08 | 263
8 | CCCC1COCCN1c1nc(-c2ccncc2)[nH]c(=O)c1Cl (stereo not shown) [Compound 366] | – | – | 60.3 | –
9 | CC(C)CC1COCCN1c1nc(-c2ccncc2)[nH]c(=O)c1Cl (stereo not shown) [Compound 367] | – | – | 295 | –
10 | CC1CNCCN1c1nc(-c2ccncc2)[nH]c(=O)c1Cl (stereo not shown) [Compound 368] | – | – | 0.603 | 15.5
11 | CC[C@H]1CNCCN1c1nc(-c2ccncc2)[nH]c(=O)c1Cl [Compound 369] | – | – | 5.5 | 891
12 | CC(C)[C@H]1CNCCN1c1nc(-c2ccncc2)[nH]c(=O)c1Cl [Compound 370] | – | – | 12 | 1020
13 | CC[C@@H]1CNCCN1c1nc(-c2ccncc2)[nH]c(=O)c1Cl [Compound 371] | – | – | 3.09 | 245
14 | O=c1[nH]c(-c2ccncc2)nc(N2CCNCC2c2ccccc2)c1Cl (stereo not shown) [Compound 372] | – | – | 263 | –
15 | CC(C)[C@H]1CN(c2nc(-c3ccncc3)[nH]c(=O)c2Br)CCN1 [Compound 408, 5-bromo-4-[(3S)-3-isopropylpiperazin-1-yl]-2-(4-pyridyl)-1H-pyrimidin-6-one] | – | – | 5.25 | 257
16 | CC(C)[C@H]1CN(c2nc(-c3ccncc3)[nH]c(=O)c2C#N)CCN1 [Compound 409, 4-[(3S)-3-isopropylpiperazin-1-yl]-6-oxo-2-(4-pyridyl)-1H-pyrimidine-5-carbonitrile] | – | – | 11.5 | –
17 | CC(C)(C)[C@H]1CN(c2nc(-c3ccncc3)[nH]c(=O)c2Br)CCN1 [Compound 410, 5-bromo-4-[(3S)-3-tert-butylpiperazin-1-yl]-2-(4-pyridyl)-1H-pyrimidin-6-one] | – | – | 9.12 | 269
18 | CC(C)(C)[C@H]1CN(c2nc(-c3ccncc3)[nH]c(=O)c2C#N)CCN1 [Compound 411, 4-[(3S)-3-tert-butylpiperazin-1-yl]-6-oxo-2-(4-pyridyl)-1H-pyrimidine-5-carbonitrile] | – | – | 10.5 | –
